Test [1] concerns the target 5-HT2A receptors (Rattus norvegicus, UniProt P14842). The test is described as follows: in-vitro affinity to 5-HT2A receptors, displacement of [3H]ketanserine (Example A1). In kind it is binding. Particulars: read-out: HT2A IC50. The source says: The 5-HT2A receptors are exposed both to [^3H]ketanserine (a substance which is known for its affinity to the receptor) and also to the test compound. The decrease in the affinity of [^3H]ketanserine to the receptor is an indication of the affinity of the test substance to the 5-HT2A receptor.

For test [2], the target named is T1, 5 HT2C receptor (Homo sapiens, UniProt P28335).
T1 sequence (P28335 33-458): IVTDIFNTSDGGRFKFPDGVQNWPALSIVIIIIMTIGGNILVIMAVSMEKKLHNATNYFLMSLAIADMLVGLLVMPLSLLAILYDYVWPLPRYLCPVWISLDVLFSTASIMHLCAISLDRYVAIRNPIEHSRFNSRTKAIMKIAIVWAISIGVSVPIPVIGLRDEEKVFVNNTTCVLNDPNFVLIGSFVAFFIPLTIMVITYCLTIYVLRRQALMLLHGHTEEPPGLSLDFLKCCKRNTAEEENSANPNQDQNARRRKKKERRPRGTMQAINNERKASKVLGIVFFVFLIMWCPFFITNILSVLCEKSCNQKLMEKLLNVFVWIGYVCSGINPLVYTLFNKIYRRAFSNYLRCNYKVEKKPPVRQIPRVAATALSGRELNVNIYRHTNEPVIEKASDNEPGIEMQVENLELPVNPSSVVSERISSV
The test is described as follows: affinity to the 5 HT2C receptor. In kind it is binding.

Consider 23 molecules from US20060264419A1 (priority 2003, published 2006).

pIC50: −log10 of the molar value.

Sequence of 5-HT2A receptors (P14842 whole entry): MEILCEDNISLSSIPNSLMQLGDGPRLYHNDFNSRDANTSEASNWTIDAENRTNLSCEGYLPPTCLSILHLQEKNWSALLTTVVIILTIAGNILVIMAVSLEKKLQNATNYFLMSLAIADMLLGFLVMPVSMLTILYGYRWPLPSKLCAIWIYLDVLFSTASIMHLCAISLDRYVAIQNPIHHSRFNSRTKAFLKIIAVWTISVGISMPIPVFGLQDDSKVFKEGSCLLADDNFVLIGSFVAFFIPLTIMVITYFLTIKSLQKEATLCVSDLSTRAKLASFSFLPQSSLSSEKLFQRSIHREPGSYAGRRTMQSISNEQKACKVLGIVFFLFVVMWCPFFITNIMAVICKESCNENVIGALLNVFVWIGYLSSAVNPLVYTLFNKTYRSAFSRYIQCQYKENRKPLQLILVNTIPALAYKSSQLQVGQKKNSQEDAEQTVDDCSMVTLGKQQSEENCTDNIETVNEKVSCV

The term pIC50 denotes the IC50 on a negative log10 scale, so that one unit is a factor of ten. Take `CN1CCN(Cc2cnn(-c3ccc(-c4ccc(F)cc4)cc3)c2-c2ccccc2Cl)CC1` [Example 965, 1-[5-(2-Chlorophenyl)-1-(4′-fluoro-biphenyl-4-yl)-1H-pyrazol-4-ylmethyl]-4-methylpiperazine]: the values for the pIC50 in test [1] and in test [2] were 7.14 and 6.22, respectively.

As for `O=C1NCN(c2ccccc2)C12CCN(Cc1cnn(-c3ccc(-c4ccccc4)cc3)c1-c1ccccc1F)CC2` [Example 1051, 8-[1-Biphenyl-4-yl-5-(2-fluorophenyl)-1H-pyrazol-4-ylmethyl]-1-phenyl-1,3,8-triaza-spiro[4.5]decan-4-one], the pIC50 in test [1] is 6.40; in test [2] it was 6.00.

As to `CN1CCN(Cc2cnn(-c3ccc(-c4ccccc4F)cc3)c2-c2ccccc2F)CC1` [Example 976, 1-[1-(2′-Fluorobiphenyl-4-yl)-5-(2-fluoro-phenyl)-1H-pyrazol-4-ylmethyl]-4-methyl-piperazine], the figures for the pIC50 in test [1] and in test [2] were 7.03 and 6.43, respectively.

With `O=S1(=O)CCN(Cc2cnn(-c3ccc(-c4ccccc4)cc3)c2-c2ccccc2F)CC1` [Example 945, 4-[1-Biphenyl-4-yl-5-(2-fluorophenyl)-1H-pyrazol-4-ylmethyl]thiomorpholine 1,1-dioxide], the pIC50 in test [1] is 7.37; in test [2] it was 6.00.

For `CN1CCN(Cc2cnn(-c3ccc(-c4ccc(F)cc4)cc3)c2-c2ccc(Cl)cc2)CC1` [Example 1057, 1-[5-(4-Chlorophenyl)-1-(4′-fluoro-biphenyl-4-yl)-1H-pyrazol-4-ylmethyl]-4-methylpiperazine], the results for the pIC50 in test [1] and in test [2] were 6.34 and 6.00, respectively.

As to `CN1CCN(Cc2cnn(-c3ccc(-c4ccc5c(c4)OCCO5)cc3)c2-c2ccccc2F)CC1` [Example 901, 1-[1-[4-(2,3-Dihydrobenzo[1,4]dioxin-6-yl)-phenyl]-5-(2-fluorophenyl)-1H-pyrazol-4-yl-methyl]-4-methyl-piperazine], the pIC50 in test [1] was 7.89; in test [2] it was 6.06.

`CC(C)(C)OC(=O)N1CCN(Cc2cnn(-c3ccc(-c4ccccc4)cc3)c2-c2ccccc2F)CC1` [Example 971, tert-Butyl 4-[1-biphenyl-4-yl-5-(2-fluoro-phenyl)-1H-pyrazol-4-ylmethyl]piperazine-1-carboxylate]: the figures for the pIC50 in test [1] and in test [2] were 7.09 and 6.00, respectively.

`CN(C)CCc1cnn(-c2ccc(-c3ccc(F)cc3)cc2)c1-c1ccccc1F` [Example 890, {2-[1-(4′-Fluorobiphenyl-4-yl)-5-(2-fluoro-phenyl)-1H-pyrazol-4-yl]ethyl}dimethylamine]: the pIC50 in test [1] was 8.82; in test [2], 7.56.

Take `CC(C)c1ccc(-n2ncc(CN3CCN(C)CC3)c2-c2ccccc2F)cc1` [Example 983, 1-[5-(2-Fluorophenyl)-1-(4-isopropylphenyl)-1H-pyrazol-4-ylmethyl]-4-methylpiperazine]: the values for the negative logarithm of the IC50 (pIC50) in test [1] and in test [2] were 6.92 and 6.28, respectively.

With `Fc1ccccc1-c1c(CNCc2nc3ccccc3[nH]2)cnn1-c1ccc(-c2ccccc2)cc1` [Example 969, (1H-Benzoimidazol-2-ylmethyl)-[1-biphenyl-4-yl-5-(2-fluorophenyl)-1H-pyrazol-4-ylmethyl]-amine], the pIC50 in test [1] was 7.12; in test [2], 6.00.

For `CN1CCN(Cc2cnn(-c3ccc(C(F)(F)F)cc3)c2-c2ccccc2F)CC1` [Example 990, 1-[5-(2-Fluorophenyl)-1-(4-trifluoro-methyl-phenyl)-1H-pyrazol-4-ylmethyl]-4-methyl-piperazine], the pIC50 was 6.88 in test [1] and 6.31 in test [2].

For the molecule `c1ccc(-c2ccc(-n3ncc(CNCc4ccncc4)c3-c3ccccc3)cc2)cc1` [Example 932, (1-Biphenyl-4-yl-5-phenyl-1H-pyrazol-4-yl-methyl)pyridin-4-ylmethylamine], the pIC50 in test [1] was 7.51; in test [2], 6.00.

`Fc1ccccc1-c1c(CN2CCCC2)cnn1-c1ccc(-c2ccccc2)cc1` [Example 934, 1-Biphenyl-4-yl-5-(2-fluorophenyl)-4-pyrrolidin-1-ylmethyl-1H-pyrazole]: the pIC50 in test [1] was 7.49; in test [2], 6.00.

For the molecule `CN1CCN(Cc2cnn(-c3ccc(-c4ccc(F)cc4)cc3)c2-c2ccccc2)CC1` [Example 900, 1-[1-(4′-Fluorobiphenyl-4-yl)-5-phenyl-1H-pyrazol-4-ylmethyl]-4-methylpiperazine], the results for the pIC50 in test [1] and in test [2] were 7.89 and 6.51, respectively.

As for `Fc1ccc(CCN2CCN(Cc3cnn(-c4ccccn4)c3-c3ccccc3F)CC2)c(F)c1` [Example 919, 1-[2-(2,4-Difluorophenyl)ethyl]-4-[5-(2-fluoro-phenyl)-1-pyridin-2-yl-1H-pyrazol-4-ylmethyl]-piperazine], the pIC50 in test [1] was 7.64; in test [2], 6.00.

In the case of `CN1CCN(Cc2cnn(-c3ccc(-c4ccc(Cl)cc4)cc3)c2-c2ccccc2F)CC1` [Example 920, 1-[1-(4′-Chlorobiphenyl-4-yl)-5-(2-fluoro-phenyl)-1H-pyrazol-4-ylmethyl]-4-methyl-piperazine], the pIC50 in test [1] is 7.64; in test [2], 6.48.

Take `CCN(CC)Cc1cnn(-c2ccc(-c3ccc(F)cc3)cc2)c1-c1ccc(Cl)cc1` [Example 1016, [5-(4-Chlorophenyl)-1-(4′-fluoro-biphenyl-4-yl)-1H-pyrazol-4-ylmethyl]diethylamine]: the negative logarithm of the IC50 (pIC50) in test [1] is 6.66; in test [2] it was 6.00.

Regarding `COc1cccc(-c2ccc(-n3ncc(CN4CCN(C)CC4)c3-c3ccccc3F)cc2)c1` [Example 930, 1-[5-(2-Fluorophenyl)-1-(3′-methoxy-biphenyl-4-yl)-1H-pyrazol-4-ylmethyl]-4-methyl-piperazine], the pIC50 in test [1] is 7.54; in test [2], 6.16.

With `CN1CCN(Cc2cnn(-c3ccc(OC(F)(F)F)cc3)c2-c2ccccc2F)CC1` [Example 1029, 1-[5-(2-Fluorophenyl)-1-(4-trifluoromethoxy-phenyl)-1H-pyrazol-4-ylmethyl]-4-methyl-piperazine], the pIC50 is 6.57 in test [1] and 6.31 in test [2].

In the case of `OC1CCN(Cc2cnn(-c3ccc(-c4ccccc4)cc3)c2-c2ccccc2F)C1` (stereo not shown) [Example 904, 1-[1-Biphenyl-4-yl-5-(2-fluorophenyl)-1H-pyrazol-4-ylmethyl]pyrrolidin-3-ol], the pIC50 in test [1] was 7.85; in test [2], 5.70.

With `COCCNCc1cnn(-c2ccc(-c3ccccc3)cc2)c1-c1ccccc1F` [Example 905, [1-Biphenyl-4-yl-5-(2-fluorophenyl)-1H-pyrazol-4-ylmethyl]-(2-methoxyethyl)amine], the pIC50 in test [1] was 7.80; in test [2], 6.00.

With `CN1CCN(Cc2cnn(-c3ccc(-c4ccc(C#N)cc4)cc3)c2-c2ccccc2F)CC1` [Example 952, 4′-[5-(2-Fluorophenyl)-4-(4-methyl-piperazin-1-ylmethyl)pyrazol-1-yl]biphenyl-4-carbonitrile], the pIC50 in test [1] was 7.28; in test [2], 6.10.

For the molecule `CC(C)N1CCN(Cc2cnn(-c3ccc(-c4ccc(F)cc4)cc3)c2-c2ccc(Cl)cc2)CC1` [Example 1054, 1-[5-(4-Chlorophenyl)-1-(4′-fluoro-biphenyl-4-yl)-1H-pyrazol-4-ylmethyl]-4-isopropylpiperazine], the pIC50 was 6.36 in test [1] and 6.00 in test [2].
